For the assay, the system named is Botrytis cinerea. Briefly: Antimicrobial bioassay (Botrytis cinerea): growth inhibition by OD600. Format: cell-based. Conditions: for Activity ratio to NCR13a: anti-Botrytis cinerea activity (IC50) relative to comparator NCR13a. Here is the method: The antimicrobial effect of the NCR13 variant peptides (NVPs) of the present disclosure were evaluated against the fungal species, Botrytis cinerea. […] The growth of Botrytis cinerea was then assessed via OD600 nm after incubation with a given NVP at room temperature after 96 hours. The IC50 of each peptide analyzed is shown in ppm.
The antimicrobial effect of the NCR13 variant peptides (NVPs) of the present disclosure were evaluated against the fungal species, Botrytis cinerea. […] The growth of Botrytis cinerea was then assessed via OD600 nm after incubation with a given NVP at room temperature after 96 hours.
The NVPs assessed were as follows: NVPM3 (+L) (SEQ ID NO: 5); NVPM5 (+M) (SEQ ID NO: 7); NVPM6 (+F) (SEQ ID NO: 8); NVPM7 (+W) (SEQ ID NO: 9); NVPM9 (+S) (SEQ ID NO: 11); NVPM11 (+Y) (SEQ ID NO: 13); NVPM14 (+D) (SEQ ID NO: 16); and NVPM15 (+E) (SEQ ID NO: 17).
NVPs having an amino acid sequence of SEQ ID NOs: 5, 7, 8, 9, 11, 13, 16, and 17 were generated as described above in Example 1. The peptide, NCR13a, having an amino acid sequence of: […] (SEQ ID NO: 2) was selected as a comparator peptide, with which the antifungal activity of the foregoing NVPs was compared.
The fungal species was Botrytis cinerea was cultured in potato dextrose agar plates. Fungal spores were collected from the agar plates and suspended into de-ionized water, followed by enumeration in a Petroff-Hausser counting chamber (VWR).
The 96-well plates were incubated at room temperature for 96 hours without shaking. The OD600 of the culture plate was determined using SpectraMax plate reader. Relative OD600 was determined by normalizing cell growth to control wells containing neither NVPs nor NCR13a. The OD600 was used to determine IC50.

Where a SMILES comes first, the peptide text is derived from it.

With `CC[C@H](C)[C@H](NC(=O)[C@H](CS)NC(=O)[C@H](CCCCN)NC(=O)[C@@H]1CCCN1C(=O)[C@@H](NC(=O)[C@H](CCCCN)NC(=O)[C@@H]1CCCN1C(=O)[C@H](CCCCN)NC(=O)[C@H](CCCNC(=N)N)NC(=O)[C@H](CS)NC(=O)[C@H](C)NC(=O)[C@H](Cc1ccccc1)NC(=O)[C@H](CCCCN)NC(=O)[C@H](CCCCN)NC(=O)[C@H](CS)NC(=O)[C@H](CC(=O)O)NC(=O)[C@H](CCCCN)NC(=O)[C@H](CC(=O)O)NC(=O)[C@H](CO)NC(=O)[C@H](CCC(N)=O)NC(=O)[C@H](CS)NC(=O)[C@@H]1CCCN1C(=O)[C@H](CCCCN)NC(=O)[C@@H](NC(=O)[C@@H](N)Cc1ccc(O)cc1)[C@@H](C)O)C(C)C)C(=O)N[C@@H](CC(N)=O)C(=O)NCC(=O)N[C@@H](Cc1ccccc1)C(=O)N[C@@H](CS)C(=O)N[C@@H](CCCCN)C(=O)N[C@@H](CS)C(=O)N[C@H](C(=O)N[C@@H](CCCNC(=N)N)C(=O)O)C(C)C` [NVPM11] (H-YTKPCQSDKDCKKFACRKPKVPKCINGFCKCVR-OH; N-terminus and C-terminus assumed), the “Activity ratio to NCR13a” value is 1.77. In addition, the “anti-Botrytis activities relative to NCR13a” value (Botrytis cinerea growth, comparison with NCR13a) is “improved anti-Botrytis activities relative to NCR13a”.

Take `CC[C@H](C)[C@H](NC(=O)[C@H](CS)NC(=O)[C@H](CCCCN)NC(=O)[C@@H]1CCCN1C(=O)[C@@H](NC(=O)[C@H](CCCCN)NC(=O)[C@@H]1CCCN1C(=O)[C@H](CCCCN)NC(=O)[C@H](CCCNC(=N)N)NC(=O)[C@H](CS)NC(=O)[C@H](C)NC(=O)[C@H](Cc1ccccc1)NC(=O)[C@H](CCCCN)NC(=O)[C@H](CCCCN)NC(=O)[C@H](CS)NC(=O)[C@H](CC(=O)O)NC(=O)[C@H](CCCCN)NC(=O)[C@H](CC(=O)O)NC(=O)[C@H](CO)NC(=O)[C@H](CCC(N)=O)NC(=O)[C@H](CS)NC(=O)[C@@H]1CCCN1C(=O)[C@H](CCCCN)NC(=O)[C@@H](NC(=O)CN)[C@@H](C)O)C(C)C)C(=O)N[C@@H](CC(N)=O)C(=O)NCC(=O)N[C@@H](Cc1ccccc1)C(=O)N[C@@H](CS)C(=O)N[C@@H](CCCCN)C(=O)N[C@@H](CS)C(=O)N[C@H](C(=O)N[C@@H](CCCNC(=N)N)C(=O)O)C(C)C` [NCR13a, reference compound] (H-GTKPCQSDKDCKKFACRKPKVPKCINGFCKCVR-OH; N-terminus and C-terminus assumed): the “Activity ratio to NCR13a” value stood at 1. Also, the “IC50 (ppm)” value (amount required to achieve IC50 in Botrytis cinerea cells, growth by OD600 after 96 hours at room temperature in synthetic fungal medium, 2-fold serial dilution) is on record as 2.36 ppm.

Take `CC[C@H](C)[C@H](NC(=O)[C@H](CS)NC(=O)[C@H](CCCCN)NC(=O)[C@@H]1CCCN1C(=O)[C@@H](NC(=O)[C@H](CCCCN)NC(=O)[C@@H]1CCCN1C(=O)[C@H](CCCCN)NC(=O)[C@H](CCCNC(=N)N)NC(=O)[C@H](CS)NC(=O)[C@H](C)NC(=O)[C@H](Cc1ccccc1)NC(=O)[C@H](CCCCN)NC(=O)[C@H](CCCCN)NC(=O)[C@H](CS)NC(=O)[C@H](CC(=O)O)NC(=O)[C@H](CCCCN)NC(=O)[C@H](CC(=O)O)NC(=O)[C@H](CO)NC(=O)[C@H](CCC(N)=O)NC(=O)[C@H](CS)NC(=O)[C@@H]1CCCN1C(=O)[C@H](CCCCN)NC(=O)[C@@H](NC(=O)[C@H](C)N)[C@@H](C)O)C(C)C)C(=O)N[C@@H](CC(N)=O)C(=O)NCC(=O)N[C@@H](Cc1ccccc1)C(=O)N[C@@H](CS)C(=O)N[C@@H](CCCCN)C(=O)N[C@@H](CS)C(=O)N[C@H](C(=O)N[C@@H](CCCNC(=N)N)C(=O)O)C(C)C` [NVPM1] (H-ATKPCQSDKDCKKFACRKPKVPKCINGFCKCVR-OH; N-terminus and C-terminus assumed): the “Activity ratio to NCR13a” value is recorded as 2.43.
